# US20030108574A1, “Carbohydrate-based whole cell cancer vaccines” (priority 2001, published 2003)
# “And” between values parts separate entries of the source, which are not always exact repeats. Identical values can stand only once.
# Key:
# [1] = tested on: polysialic acid; settings: RMA-S tumor-bearing mice, CY day 7, vaccine day 8
# Method: ELISA. Total IgG antibody was measured by ELISA. Each well of ELISA plate was coated with HAS conjugates (0.5 μl/50 μl PBS/well) of NAc or NPr polysialic acids (11 kDa fractions), and blocked with 150 μl of 10%FBS in PBS. The plates were then washed three times with PBS and Tween20 (0.05%). Sera were added into well of plate after serial dilutions. The plates were kept for 1 hour at room temperature. After washing, anti-mouse IgG conjugates with horseradish peroxide (50 μl) were added into each well of plate and incubated for 1 hour at room temperature. Plates were further washed five times with PBS and Tween20 (0.05%) and 100 Ill of substrate 2,2′-azino-bis-(3-ethylbenthiazoline-6-sulfonic acid)(1 mg/ml) in 44 mM Na2HPO4, 20 mM citric acid and 0.3% H2O2. The plates were read at 405 nm with reference wavelength of 490 nm.
# (§2) Vaccine preparation and administration. RMA-S cells were incubated with ManNPr (1 mg/ml) for 48 hour, and after washing with PBS, they were suspended in PBS and killed by heating at 70° C. for 10 min. Mice were injected subcutaneously with 2×10^6 RMA-S cells at the area of rear flank to develop a solid tumor. […] Whole cell vaccines (2×10^6 cells) were inoculated at day 8 and tumor growth was monitored routinely.
# [2] = tested on: RMA-S tumor; assay: Spleen metastasis by limiting dilution of spleen cells
# Method: as §2
# Limiting dilution-Cell suspension of the mouse spleen was prepared in RPMI 1640 medium. One fifth of each spleen suspension was used to initiate a 2-fold serial dilution with complete RPMI 1640 medium and the cells were cultured over 20 days. Cancer cells of metastasis of spleen were examined under the microscope.
# One fifth of cell suspension of spleen was used to initiate a serial 2-fold dilution. Cells were cultured over 20 days and tumor cells from the spleen were examined under the microscope. The negative score was the cell culture that had no tumor cells in comparison of the positive score with tumor cells in cell culture.
# [3] = tested on: RMA-S cells; assay: Flow cytometry of polysialic acid and NPr polysialic acid expression on RMA-S cells incubated with ManNPr; type: cell-based, mouse
# Method: (§1) Flow Cytometry. For flow cytometry, cells were incubated with MAbs 13D9 or 735 in 50 μl of RPMI+1% FBS on ice for 30 min. The cells were then washed and incubated with FITC-labelled secondary antibodies. After 30 min the cells were washed and fixed in 1% formaldehyde and assayed on a flow cytometer (Coulter Incorporation, Miami, Fla.).
# Preparation of vaccines. RMA-S cells derived from leukemic cell line RMA, are defective in transportation-associated proteins (12). However, RMA-S cells like those of the original RMA cells (9), can still incorporate ManNPr into their surface polysialic acid as shown by flow cytometric analysis. FIG. […] Following harvesting of the cells the expression of polysialic acid and its NPr analog were measured by flow cytometry using MAb 735 and MAb 13D9 respectively.
# Heat-killed RMA-S cells pretreated with 1 mg/ml ManNPr for 48 h, were then used as the autologous vaccine.
# [4] = tested on: P815 cells; assay: Flow cytometry of polysialic acid and NPr polysialic acid expression on P815 cells incubated with ManNPr; type: cell-based, mouse; settings: 1 mg/ml ManNPr
# Method: as §1
# To identify a cell line allogeneic to RMA-S, but which was also able to express polysialic acid, a number of allogeneic tumor cell lines were screened by flow cytometric analysis using MAb 735 (data not shown). […] FIG. 1B illustrates NPr polysialic acid expression on the surface of tumor cells for P815 cells incubated with 1 mg/ml ManNPr in cell culture. The cells were harvested at intervals and the expression of polysialic acid and its NPr analog were measured as described above. P815 cells were treated with ManNPr for different time periods, and after washing, they were stained with either MAb 735 or MAb 13D9. […] Obviously the transformation of polysialic acid on the surface of P815 cells follows a different pattern from RMA-S RMA and RBL-2H3 (9) cell lines that already have higher initial levels of expression of polysialic acid. Heat-killed P815 cells, pretreated with ManNPr, were then used as the allogeneic vaccine.
Structure (SMILES),sera binding to polysialic acid [1],Percentage of spleen metastasis ([2]; Table 3 experiment),"Metastasis of Spleen, Percentage ([2]; day 35, summary of two experiments)","metastasis score of spleen of individual mouse (row head: Treatment) ([2]; one cell per mouse, spleen cells cultured over 20 days)",conversion of surface polysialic acid to NPr polysialic acid (staining with MAb 13D9) ([3]; ManNPr at different concentrations),binding of MAb 735 (polysialic acid) to the cell surface ([3]; increasing amounts of ManNPr),binding of MAb 735 (polysialic acid) to the cell surface [4],shift of fluorescence on staining with MAb 13D9 (NPr polysialic acid) ([4]; different time periods)
"O=P1(N(CCCl)CCCl)NCCCO1 (centres unmarked) [CY, cyclophosphamide]",no binding,75%,(78%),+ (3×) and −,–,–,–,–
"CCC(=O)N[C@@H]1C(O)O[C@H](CO)[C@@H](O)[C@@H]1O (some centres unmarked) [ManNPr, N-propionylmannosamine]",–,–,–,–,significantly converted to NPr polysialic acid,binding to the cell surface became weaker,slight increase in the binding of MAb 735,large shift of fluorescence
